The source of these data is patent US6277847A, “Herbicidal isoindolinonyl-and 3,4-dihydroisoquinolonyl-substituted heterocycles” (FMC Corporation, priority 2000, dated 2001).

Type in all cases: in vivo
Assay [1] relates to Johnsongrass (Sorghum halepense). Description: pre-emergence herbicidal activity, johnsongrass. The note with it: 1 kg/Ha, about fourteen days, read-out: pre-emergence herbicidal activity (% control) SORHA. The procedure: (§1) This example sets forth the methods of herbicidal testing conducted on the specific compounds set forth below. Specifically, the compounds referenced below were tested for pre- and post-emergence herbicidal activity using a variety of crops and weeds. The test plants include, but are not limited to, soybean (Glycine max -- var. Winchester), field corn (Zea mays var. Pioneer 3732), wheat (Triticum aestivum var. Lew), morningglory (Ipomea lacunosa or Ipomea hederacea), velvetleaf (Abutilon theophrasti), green foxtail (Setaria viridis), Johnsongrass (Sorghum halepense), blackgrass (Aloepecurus myosuroides), common chickweed (Stellaria media), and common cocklebur (Xanthium strumarium L.).
(§2) In the post-emergence test, seeds of the plant species named above were planted in flats containing the appropriate soil mixture where they were maintained to allow the seeds to germinate. When the plants in these flats reached the proper stage of growth, flats for the pre-emergence tests were planted in a like manner. The flats containing the post-emergence and pre-emergence test plant species were then sprayed with an appropriately concentrated water/acetone solution of test compound. Once treated the flats were maintained, along with untreated controls, for about fourteen days. All treated plants were then examined for phytotoxicity, which was expressed as percent control where 0 is no effect and 100 is complete control. Effective rates of application for the compounds of the present invention range from 0.001 to 3 kg/ha, more likely from […] to 1 Kg/ha.
(§3) Herbicidal activity data at selected application rates are in Tables 4 and 5. The test compounds are identified by numbers correspond to those in Table 1.
(§4) Rate of application of test compound is 1 kg/Ha
(§5) SOY is soybean, WHT is wheat, CRN is corn, ABUTH is velvetleaf, IPOSS is
(§6) morningglory, STEME is chickweed, XANPE is cocklebur, ALOMY is blackgrass, […]

Assay [2] has as its system velvetleaf (Abutilon theophrasti). Description: pre-emergence herbicidal activity, velvetleaf. The note with it: 1 kg/Ha, about fourteen days, read-out: pre-emergence herbicidal activity (% control) ABUTH. On the procedure:
as §1, §2, §3, §4, §5, §6

Assay [3] concerns morningglory (Ipomea lacunosa or Ipomea hederacea). Description: post-emergence herbicidal activity, morningglory. The note with it: Ipomoea, 1 Kg/Ha, about fourteen days, read-out: post-emergence herbicidal activity (% control) IPOSS. On the procedure: as §1, §2, §3, §5
(§7) morningglory, STEME is chickweed, XANPE is cocklebur, ALOMY is blackgrass,
(§8) Rate of application of test compound is 1 Kg/Ha. The definitions as shown under Table 4 apply to Table 5.

The test system of assay [4] is common chickweed (Stellaria media). Description: pre-emergence herbicidal activity, chickweed. The note with it: 1 kg/Ha, about fourteen days, read-out: pre-emergence herbicidal activity (% control) STEME. The procedure: as §1, §2, §3, §4, §5, §6
The test system of assay [5] is common cocklebur (Xanthium strumarium L.). Description: post-emergence herbicidal activity, cocklebur. The note with it: 1 Kg/Ha, about fourteen days, read-out: post-emergence herbicidal activity (% control) XANPE. The procedure: as §1, §2, §3, §5, §7, §8
In assay [6] the test system is green foxtail (Setaria viridis). Description: pre-emergence herbicidal activity, green foxtail. The note with it: 1 kg/Ha, about fourteen days, read-out: pre-emergence herbicidal activity (% control) SETVI. On the procedure:
as §1, §2, §3, §4, §5, §6

Assay [7] deals with wheat (Triticum aestivum var. Lew). Description: pre-emergence herbicidal activity, wheat. The note with it: 1 kg/Ha, about fourteen days, read-out: pre-emergence herbicidal activity (% control) WHT. The procedure:
as §1, §2, §3, §4, §5, §6

Assay [8] relates to morningglory (Ipomea lacunosa or Ipomea hederacea). Description: pre-emergence herbicidal activity, morningglory. The note with it: Ipomoea, 1 kg/Ha, about fourteen days, read-out: pre-emergence herbicidal activity (% control) IPOSS. The procedure:
as §1, §2, §3, §4, §5, §6

For assay [9], the system named is velvetleaf (Abutilon theophrasti). Description: post-emergence herbicidal activity, velvetleaf. The note with it: 1 Kg/Ha, about fourteen days, read-out: post-emergence herbicidal activity (% control) ABUTH. On the procedure:
as §1, §2, §3, §5, §7, §8

The subject of assay [10] is green foxtail (Setaria viridis). Description: post-emergence herbicidal activity, green foxtail. The note with it: 1 Kg/Ha, about fourteen days, read-out: post-emergence herbicidal activity (% control) SETVI. The procedure:
as §1, §2, §3, §5, §7, §8

In assay [11] the test system is wheat (Triticum aestivum var. Lew). Description: post-emergence herbicidal activity, wheat. The note with it: 1 Kg/Ha, about fourteen days, read-out: post-emergence herbicidal activity (% control) WHT. The procedure: as §1, §2, §3, §5, §7, §8
Assay [12] concerns field corn (Zea mays var. Pioneer 3732). Description: pre-emergence herbicidal activity, corn. The note with it: 1 kg/Ha, about fourteen days, read-out: pre-emergence herbicidal activity (% control) CRN. On the procedure: as §1, §2, §3, §4, §5, §6
For assay [13], the system named is blackgrass (Aloepecurus myosuroides). Description: pre-emergence herbicidal activity, blackgrass. The note with it: Alopecurus myosuroides, 1 kg/Ha, about fourteen days, read-out: pre-emergence herbicidal activity (% control) ALOMY. The procedure:
as §1, §2, §3, §4, §5, §6

For assay [14], the system named is soybean (Glycine max -- var. Winchester). Description: post-emergence herbicidal activity, soybean. The note with it: 1 Kg/Ha, about fourteen days, read-out: post-emergence herbicidal activity (% control) SOY. On the procedure:
as §1, §2, §3, §5, §7, §8

Assay [15] deals with Johnsongrass (Sorghum halepense). Description: post-emergence herbicidal activity, johnsongrass. The note with it: 1 Kg/Ha, about fourteen days, read-out: post-emergence herbicidal activity (% control) SORHA. On the procedure:
as §1, §2, §3, §5, §7, §8

Assay [16] concerns common cocklebur (Xanthium strumarium L.). Description: pre-emergence herbicidal activity, cocklebur. The note with it: 1 kg/Ha, about fourteen days, read-out: pre-emergence herbicidal activity (% control) XANPE. The procedure: as §1, §2, §3, §4, §5, §6
Assay [17] has as its system field corn (Zea mays var. Pioneer 3732). Description: post-emergence herbicidal activity, corn. The note with it: 1 Kg/Ha, about fourteen days, read-out: post-emergence herbicidal activity (% control) CRN. On the procedure:
as §1, §2, §3, §5, §7, §8

In assay [18] the test system is soybean (Glycine max -- var. Winchester). Description: pre-emergence herbicidal activity, soybean. The note with it: 1 kg/Ha, about fourteen days, read-out: pre-emergence herbicidal activity (% control) SOY. The procedure: as §1, §2, §3, §4, §5, §6

For `Cn1c(C(F)(F)F)cc(=O)n(-c2ccc(Cl)c3c2CNC3=O)c1=O` [Compound 12], the activity at 1000 g/ha in [1] came to 100%; in assay [2] it was 100%; in assay [3] it was 75%; in assay [4] it was 100%; in assay [5], 95%; in [6], 100%. The activity at 1000 g/ha in assay [7] turned out to be 100%; in [8] it was 100%; in assay [9], 100%; in [10], 100%; in assay [11], 70%; in assay [12] it was 100%. The activity at 1000 g/ha in [13] came out at 100%; in [14], 95%; in [15], 60%; in assay [16], 100%; in [17] it was 70%; in assay [18] it was 100%.

For `CCCN1Cc2c(-n3c(=O)cc(C(F)(F)F)n(C)c3=O)ccc(Cl)c2C1=O` [Compound 13], the activity at 1000 g/ha in assay [1] was found to be 100%; in assay [2], 100%; in assay [3] it was 100%; in [4] it was 100%; in [5], 95%; in assay [6] it was 100%. Also, the activity at 1000 g/ha in assay [7], in assay [8], in assay [9], in assay [10], in [11] and in assay [12] was 100% each time. Further, the activity at 1000 g/ha in [13], in [14], in assay [15], in assay [16], in assay [17] and in assay [18] was 100% throughout.

Turning to `Cn1c(C(F)(F)F)cc(=O)n(-c2ccc(Cl)c3c2CN(C(C)(C)C)C3=O)c1=O` [Compound 14, 3-[7-chloro-2-(1,1-dimethylethyl)isoindolin-1-on-4-yl]-1-methyl-6-trifluoromethyl-2,4(1H,3H)-pyrimidinedione], the activity at 1000 g/ha in [1] amounted to 100%; in [2] it was 100%; in [3] it was 90%; in assay [4], 100%; in [5] it was 100%; in [6], 100%. In addition, the activity at 1000 g/ha in assay [7], in assay [8], in assay [9], in assay [10], in assay [11] and in [12] was 100% each time. Also, the activity at 1000 g/ha in assay [13] stood at 100%; in assay [14] it was 100%; in [15], 100%; in assay [16], 100%; in [17] it was 80%; in [18], 100%.

Regarding `Cn1c(C(F)(F)F)cc(=O)n(-c2c(Cl)cc(Cl)c3c2CNC3=O)c1=O` [Compound 15], the activity at 1000 g/ha in assay [1] turned out to be 100%; in assay [2], 100%; in assay [3] it was 100%; in assay [4] it was 60%; in [5], 60%; in assay [6] it was 100%. Moreover, the activity at 1000 g/ha in [7] was determined as 95%; in assay [8], 100%; in [9], 100%; in [10], 60%; in [11], 50%; in assay [12], 95%. Further, the activity at 1000 g/ha in assay [13] amounted to 100%; in assay [14], 70%; in assay [15], 40%; in [16], 100%; in assay [17], 60%; in assay [18], 100%.
